The results in this text go back to patent US20250179103A1, “6-OXODECAHYDROPYRROLO[1,2-A][1,5]DIAZOCINE AND 6-OXODECAHYDRO-4H-PYRROLO[2,1-D][1,5]THIAZOCINE DERIVATIVES AS STAT3 AND STAT6 MODULATORS FOR THE TREATMENT OF CANCER AND INFLAMMATORY CONDITIONS” (Recludix Pharma, Inc., priority 2022, published 2025).

Experiment [1] has as its target T1, Recombinant STAT6 protein (STAT6(W123-T658)) (Homo sapiens, UniProt P42226).
T1 construct: Recombinant STAT6 protein (STAT6(W123-T658))
T1 sequence (P42226 123-658): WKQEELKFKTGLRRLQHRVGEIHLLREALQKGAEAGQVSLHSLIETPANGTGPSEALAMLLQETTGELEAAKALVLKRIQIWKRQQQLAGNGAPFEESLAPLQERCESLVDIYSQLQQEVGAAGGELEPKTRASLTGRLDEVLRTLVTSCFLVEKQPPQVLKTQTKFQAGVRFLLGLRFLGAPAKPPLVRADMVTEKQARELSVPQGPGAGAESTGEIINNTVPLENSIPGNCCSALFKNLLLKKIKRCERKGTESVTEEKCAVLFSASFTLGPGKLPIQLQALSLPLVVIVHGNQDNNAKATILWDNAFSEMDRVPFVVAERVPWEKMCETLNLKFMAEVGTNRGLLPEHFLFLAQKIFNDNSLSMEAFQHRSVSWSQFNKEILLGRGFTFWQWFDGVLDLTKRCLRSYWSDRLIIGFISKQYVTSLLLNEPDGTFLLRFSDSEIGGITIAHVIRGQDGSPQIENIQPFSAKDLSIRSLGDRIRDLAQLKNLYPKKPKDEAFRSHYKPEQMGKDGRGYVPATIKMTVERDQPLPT
Nature of the experiment: STAT6 Fluorescence Polarization (FP) Assay. Format: binding. Conditions: STAT6(W123-T658) 250 nM, probe 5-FAM-ApYKPFQDLI-NH2 2 nM, 45-minute incubation. The essentials: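 Displacement of a fluorescent phosphotyrosine peptide (5-FAM-ApYKPFQDLI-NH2, 2 nM) from STAT6(W123-T658) (250 nM), 1% DMSO, pH 7.4 HEPES buffer. After 45 min at room temperature, polarization (mP) was plotted versus log compound concentration and fitted by nonlinear regression to give IC50.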

Experiment [2] addresses T2, Recombinant STAT3 protein (STAT3(G127-I722)) (Homo sapiens, UniProt P40763).
T2 construct: Recombinant STAT3 protein (STAT3(G127-I722))
Put plainly: STAT3 Fluorescence Polarization (FP) Assay. The experiment is classed as binding. The note with it: STAT3(G127-I722) 25 nM, probe 5-FAM-GpYLPQTV-NH2 2 nM, 45-minute incubation. The essentials:
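Fluorescence polarization after a 45-min room-temperature incubation measured compound displacement of a 2 nM fluorescein-labelled phosphotyrosine peptide (5-FAM-GpYLPQTV-NH2) from 25 nM recombinant STAT3(G127-I722). Buffer was 10 mM HEPES pH 7.4 with 1% DMSO final. IC50s were fitted by nonlinear regression of mP against log concentration.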

Structures are written as SMILES. Where only a bound is given, the exact number is not on record here.

T2 sequence (P40763 127-722): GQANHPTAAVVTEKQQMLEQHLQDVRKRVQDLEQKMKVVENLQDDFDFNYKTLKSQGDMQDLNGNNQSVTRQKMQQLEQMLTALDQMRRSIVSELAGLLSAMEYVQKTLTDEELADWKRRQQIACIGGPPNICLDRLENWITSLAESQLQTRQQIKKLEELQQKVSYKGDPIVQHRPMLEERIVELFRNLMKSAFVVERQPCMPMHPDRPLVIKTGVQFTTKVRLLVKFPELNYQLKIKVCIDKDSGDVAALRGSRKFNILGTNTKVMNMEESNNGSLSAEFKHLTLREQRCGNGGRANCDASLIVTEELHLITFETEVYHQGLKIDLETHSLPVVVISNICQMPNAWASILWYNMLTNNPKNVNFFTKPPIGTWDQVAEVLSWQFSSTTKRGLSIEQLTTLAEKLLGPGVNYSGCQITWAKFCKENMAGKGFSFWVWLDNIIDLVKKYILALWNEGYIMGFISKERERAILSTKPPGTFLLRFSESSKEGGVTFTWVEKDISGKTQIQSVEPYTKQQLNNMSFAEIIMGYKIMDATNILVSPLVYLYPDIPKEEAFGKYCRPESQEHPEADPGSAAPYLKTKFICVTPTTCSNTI

On to `CC(=O)N1CC[C@H]2CC[C@@H](C(=O)N3C[C@@H]4[C@H](C3)[C@H]3CS(=O)(=O)C[C@@H]43)N2C(=O)[C@@H](NC(=O)c2cc3cc(C(F)(F)P(=O)(O)O)ccc3s2)C1` [Compound 79, ((2-(((5S,8S,10aR)-3-acetyl-8-((3aR,3bS,6aR,6bS)-2,2-dioxidooctahydro-1H-thieno[3′,4′:3,4]cyclobuta[1,2-c]pyrrole-5-carbonyl)-6-oxodecahydropyrrolo[1,2-a][1,5]diazocin-5-yl)carbamoyl)benzo[b]thiophen-5-yl)difluoromethyl)phosphonic acid], for which the values for the IC50 in experiment [1] and in experiment [2] were 300 to 3000 nM and 100 to 1000 nM, respectively.

As for `CC(=O)N1CC[C@H]2CC[C@@H](C(=O)N3CC4CCS(=O)(=O)CC4C3)N2C(=O)[C@@H](NC(=O)c2cc3cc(C(F)(F)P(=O)(O)O)ccc3s2)C1` (stereo partly drawn) [Compound 80, ((2-(((5S,8S,10aR)-3-acetyl-8-(5,5-dioxidooctahydrothiopyrano[3,4-c]pyrrole-2-carbonyl)-6-oxodecahydropyrrolo[1,2-a][1,5]diazocin-5-yl)carbamoyl)benzo[b]thiophen-5-yl)difluoromethyl)phosphonic acid], the IC50 in experiment [1] is 300 to 3000 nM; in experiment [2], 100 to 1000 nM.

Take `CC(=O)N1CC[C@H]2CC[C@@H](C(=O)N3CCC(c4cnc5n4CCCC5)C3)N2C(=O)[C@@H](NC(=O)c2cc3cc(C(F)(F)P(=O)(O)O)ccc3s2)C1` (stereo partly drawn) [Compound 81, ((2-(((5S,8S,10aR)-3-acetyl-6-oxo-8-(3-(5,6,7,8-tetrahydroimidazo[1,2-a]pyridin-3-yl)pyrrolidine-1-carbonyl)decahydropyrrolo[1,2-a][1,5]diazocin-5-yl)carbamoyl)benzo[b]thiophen-5-yl)difluoromethyl)phosphonic acid]: the IC50 in experiment [1] was 300 to 3000 nM; in experiment [2], 100 to 1000 nM.

On to `CC(=O)N1CC[C@H]2CC[C@@H](C(=O)N3CCC(OCc4cncs4)C3)N2C(=O)[C@@H](NC(=O)c2cc3cc(C(F)(F)P(=O)(O)O)ccc3s2)C1` (stereo partly drawn) [Compound 82, ((2-(((5S,8S,10aR)-3-acetyl-6-oxo-8-(3-(thiazol-5-ylmethoxy)pyrrolidine-1-carbonyl)decahydropyrrolo[1,2-a][1,5]diazocin-5-yl)carbamoyl)benzo[b]thiophen-5-yl)difluoromethyl)phosphonic acid], for which the IC50 fell in the range of 300 to 3000 nM in experiment [1] and 1000 to 10000 nM in experiment [2].

In the case of `COC1CCN(C2CCN(C(=O)[C@@H]3CC[C@@H]4CCN(C(C)=O)C[C@H](NC(=O)c5cc6cc(C(F)(F)P(=O)(O)O)ccc6s5)C(=O)N43)C2)CC1` (stereo partly drawn) [Compound 83, ((2-(((5S,8S,10aR)-3-acetyl-8-(3-(4-methoxypiperidin-1-yl)pyrrolidine-1-carbonyl)-6-oxodecahydropyrrolo[1,2-a][1,5]diazocin-5-yl)carbamoyl)benzo[b]thiophen-5-yl)difluoromethyl)phosphonic acid], the values for the IC50 in experiment [1] and in experiment [2] were 3000 to 30000 nM and 1000 to 10000 nM, respectively.

Turning to `CC(=O)Nc1ccn(C2CCN(C(=O)[C@@H]3CC[C@@H]4CCN(C(C)=O)C[C@H](NC(=O)c5cc6cc(C(F)(F)P(=O)(O)O)ccc6s5)C(=O)N43)C2)n1` (stereo partly drawn) [Compound 84, ((2-(((5S,8S,10aR)-8-(3-(3-acetamido-1H-pyrazol-1-yl)pyrrolidine-1-carbonyl)-3-acetyl-6-oxodecahydropyrrolo[1,2-a][1,5]diazocin-5-yl)carbamoyl)benzo[b]thiophen-5-yl)difluoromethyl)phosphonic acid], the IC50 was in the range of 300 to 3000 nM in experiment [1] and 100 to 1000 nM in experiment [2].

For the molecule `CC(=O)N1CC[C@H]2CC[C@@H](C(=O)N3CCC(N(Cc4noc(C5CC5)n4)C(C)=O)C3)N2C(=O)[C@@H](NC(=O)c2cc3cc(C(F)(F)P(=O)(O)O)ccc3s2)C1` (stereo partly drawn) [Compound 85, ((2-(((5S,8S,10aR)-3-acetyl-8-(3-(N-((5-cyclopropyl-1,2,4-oxadiazol-3-yl)methyl)acetamido)pyrrolidine-1-carbonyl)-6-oxodecahydropyrrolo[1,2-a][1,5]diazocin-5-yl)carbamoyl)benzo[b]thiophen-5-yl)difluoromethyl)phosphonic acid], the half-maximal inhibitory concentration (IC50) in experiment [1] fell in the range of 300 to 3000 nM; in experiment [2], 1000 to 10000 nM.

Take `CC(=O)N1CC[C@H]2CC[C@@H](C(=O)N3Cc4cnn(-c5ccccc5)c4C3)N2C(=O)[C@@H](NC(=O)c2cc3cc(C(F)(F)P(=O)(O)O)ccc3s2)C1` [Compound 86, ((2-(((5S,8S,10aR)-3-acetyl-6-oxo-8-(1-phenyl-1,4,5,6-tetrahydropyrrolo[3,4-c]pyrazole-5-carbonyl)decahydropyrrolo[1,2-a][1,5]diazocin-5-yl)carbamoyl)benzo[b]thiophen-5-yl)difluoromethyl)phosphonic acid]: the results for the 50% inhibitory concentration (IC50) in experiment [1] and in experiment [2] were 300 to 3000 nM and at most 100 nM, respectively.

Turning to `CC(=O)N1CC[C@H]2CC[C@@H](C(=O)N3Cc4cnn(-c5ncccn5)c4C3)N2C(=O)[C@@H](NC(=O)c2cc3cc(C(F)(F)P(=O)(O)O)ccc3s2)C1` [Compound 87, ((2-(((5S,8S,10aR)-3-acetyl-6-oxo-8-(1-(pyrimidin-2-yl)-1,4,5,6-tetrahydropyrrolo[3,4-c]pyrazole-5-carbonyl)decahydropyrrolo[1,2-a][1,5]diazocin-5-yl)carbamoyl)benzo[b]thiophen-5-yl)difluoromethyl)phosphonic acid], the figures for the IC50 in experiment [1] and in experiment [2] were 300 to 3000 nM and 1000 to 10000 nM, respectively.

For `CC(=O)N1CC[C@H]2CC[C@@H](C(=O)N3CC(C#N)(c4ccccn4)C3)N2C(=O)[C@@H](NC(=O)c2cc3cc(C(F)(F)P(=O)(O)O)ccc3s2)C1` [Compound 88, ((2-(((5S,8S,10aR)-3-acetyl-8-(3-cyano-3-(pyridin-2-yl)azetidine-1-carbonyl)-6-oxodecahydropyrrolo[1,2-a][1,5]diazocin-5-yl)carbamoyl)benzo[b]thiophen-5-yl)difluoromethyl)phosphonic acid], the IC50 in experiment [1] is 300 to 3000 nM; in experiment [2], at most 100 nM.

As to `CC(=O)N1CC[C@H]2CC[C@@H](C(=O)N(C)CC(C)C#N)N2C(=O)[C@@H](NC(=O)c2cc3cc(C(F)(F)P(=O)(O)O)ccc3s2)C1` (stereo partly drawn) [Compound 89, ((2-(((5S,8S,10aR)-3-acetyl-8-((2-cyanopropyl)(methyl)carbamoyl)-6-oxodecahydropyrrolo[1,2-a][1,5]diazocin-5-yl)carbamoyl)benzo[b]thiophen-5-yl)difluoromethyl)phosphonic acid], the figures for the concentration for half-maximal inhibition (IC50) in experiment [1] and in experiment [2] were 300 to 3000 nM and 1000 to 10000 nM, respectively.

For the molecule `CC(=O)N1CC[C@H]2CC[C@@H](C(=O)N(C)CCC#N)N2C(=O)[C@@H](NC(=O)c2cc3cc(C(F)(F)P(=O)(O)O)ccc3s2)C1` [Compound 90, ((2-(((5S,8S,10aR)-3-acetyl-8-((2-cyanoethyl)(methyl)carbamoyl)-6-oxodecahydropyrrolo[1,2-a][1,5]diazocin-5-yl)carbamoyl)benzo[b]thiophen-5-yl)difluoromethyl)phosphonic acid], the IC50 in experiment [1] fell in the range of 300 to 3000 nM; in experiment [2], 1000 to 10000 nM.

In the case of `CC(=O)N1CC[C@H]2CC[C@@H](C(=O)N(C)CC(C)(C)O)N2C(=O)[C@@H](NC(=O)c2cc3cc(C(F)(F)P(=O)(O)O)ccc3s2)C1` [Compound 91, ((2-(((5S,8S,10aR)-3-acetyl-8-((2-hydroxy-2-methylpropyl)(methyl)carbamoyl)-6-oxodecahydropyrrolo[1,2-a][1,5]diazocin-5-yl)carbamoyl)benzo[b]thiophen-5-yl)difluoromethyl)phosphonic acid], the IC50 in experiment [1] lay in the range of 300 to 3000 nM; in experiment [2], 1000 to 10000 nM.

Consider `CC(=O)N1CC[C@H]2CC[C@@H](C(=O)N(C)CC(C)(C)C#N)N2C(=O)[C@@H](NC(=O)c2cc3cc(C(F)(F)P(=O)(O)O)ccc3s2)C1` [Compound 92, ((2-(((5S,8S,10aR)-3-acetyl-8-((2-cyano-2-methylpropyl)(methyl)carbamoyl)-6-oxodecahydropyrrolo[1,2-a][1,5]diazocin-5-yl)carbamoyl)benzo[b]thiophen-5-yl)difluoromethyl)phosphonic acid], for which the IC50 lay within 300 to 3000 nM in experiment [1] and 1000 to 10000 nM in experiment [2].

With `CC(=O)N1CC[C@H]2CC[C@@H](C(=O)N(C)C3CCN(S(C)(=O)=O)CC3)N2C(=O)[C@@H](NC(=O)c2cc3cc(C(F)(F)P(=O)(O)O)ccc3s2)C1` [Compound 93, ((2-(((5S,8S,10aR)-3-acetyl-8-(methyl(1-(methylsulfonyl)piperidin-4-yl)carbamoyl)-6-oxodecahydropyrrolo[1,2-a][1,5]diazocin-5-yl)carbamoyl)benzo[b]thiophen-5-yl)difluoromethyl)phosphonic acid], the values for the IC50 in experiment [1] and in experiment [2] were 300 to 3000 nM and 1000 to 10000 nM, respectively.
